For data set [1] the following is noted: background statement; cited from earlier work.
Another data set has as its target T1, histamine-H2-receptors (Cavia porcellus, UniProt P47747).
T1 construct: in vitro on the isolated atrium of guinea pigs; from tissue; host or cells: isolated guinea pig atrium
Description: pA2 determination of H2-antagonistic activity in vitro on the isolated atrium of guinea pigs. The note with it: isolated guinea pig atrium. The source says:
A recognized method of measuring H2 -antagonistic activity is based on determination of the pA2 -values in vitro on the isolated atrium of guinea pigs (cf. Ariens, Molecular Pharmacology, Vol. 1, Academic Press, New York, 1964).

T1 sequence (P47747 whole entry): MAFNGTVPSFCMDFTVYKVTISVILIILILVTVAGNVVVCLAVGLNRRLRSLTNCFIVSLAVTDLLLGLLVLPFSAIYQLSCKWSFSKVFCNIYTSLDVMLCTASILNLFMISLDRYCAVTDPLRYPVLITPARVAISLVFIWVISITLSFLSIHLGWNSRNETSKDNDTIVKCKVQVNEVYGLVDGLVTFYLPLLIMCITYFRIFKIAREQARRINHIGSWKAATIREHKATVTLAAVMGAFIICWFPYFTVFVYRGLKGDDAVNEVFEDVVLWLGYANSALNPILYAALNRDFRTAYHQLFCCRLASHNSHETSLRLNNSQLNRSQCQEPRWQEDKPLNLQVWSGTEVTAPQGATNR

`CN/C(=N/CCSCc1nc[nH]c1C)NC#N` [Cimetidine, cimetidine]: the half life result in data set [1] was “relatively short half life”.

Broadly, the Kb is the equilibrium dissociation constant of an antagonist, usually derived from a functional assay. High values mean a less potent antagonist, low ones a more potent antagonist. At histamine-H2-receptors, `Cc1ccc(Cc2cnc(CCCCOc3cccc(CN4CCCCC4)c3)[nH]c2=O)cn1` [Example 1, 5-(6-methylpyrid-3-ylmethyl)-2-[4-[3-(1-piperidylmethyl)-phenoxy]-butyl]-pyrimidin-4-one] showed a Kb of 0.0219 µM.

(Values after patent US4559344A, “Pyridine-pyrimidinone derivatives, a process for their production and H -antagonist medicament containing these compounds” (Ludwig Heumann & Co. GmbH, priority 1983, dated 1985).)
